The text below walks through data of patent US20210301349A1, “COMPOSITIONS AND METHODS FOR TREATING A TUMOR SUPPRESSOR DEFICIENT CANCER” (BETH ISRAEL DEACONESS MEDICAL CENTER, INC., priority 2016, published 2021).

Where “and” joins values, the source holds several entries; their conditions need not be identical. Equal values may be shown once.

The test relates to Pten^pc−/−; Pml^pc−/− prostate tumors. Briefly: Tumor growth by MRI in Pten^pc−/−; Pml^pc−/− mice under CXCR2 antagonist treatment. Type of test: in vivo, mouse. The following applies: for tumor volume: Pten-Pml, individual mice; for tumor growth: Pten^pc−/−, Pml^pc−/− mice, versus vehicle. On the procedure:
Mice were allocated at random to experimental groups and studies were performed in an unblended manner. For treatment with the CXCR2 antagonist, SB225002 (Cayman Chemical #13336) was dissolved in DMSO (10 mg/ml) and diluted in vehicle (0.9% NaCl, 0.3% Tween 80) for in vivo administration. Mice (4 months of age) were treated daily for 10 days by intraperitoneal injection (5 mg/kg) and prostate tumor tissue (anterior lobes) was subjected to Flow Cytometry and histological analysis. For MRI analysis, mice (4 months of age) were treated daily for 21 days (Pten^pc−/−; Zbtb7a^pc−/−), for 14 days (Pten^pc−/−; Trp53^pc−/−) or for 14 days (Pten^pc−/−; Pml^pc−/−) by intraperitoneal injection (5 mg/kg). For depletion of Gr-1+/CD11b+ cells, Ly6G-depletion antibody (1A8, BioXcell) and control Rat IgG2a antibody (BioXcell) were diluted in phosphate-buffered saline (PBS) for in vivo administration. Mice (4 months of age) were treated every other day for 10 days by intraperitoneal injection (200-300 μg/mouse). InVivoMAb anti-mouse Ly6G/Ly6C (Gr-1) antibody, clone RB6-8C5 (BE0075, BioXcell), and control Rat IgG2b antibody (BE0090, BioXcell) were diluted in PBS and Pten^pc−/−; Trp53^pc−/− mice were treated every other day for 14 days by intraperitoneal injection (200 μg/mouse). For neutralization of CXCL5, anti-Mouse CXCL5 antibody (Leinco Technologies) and control Rat IgG2a antibody (BioXcell) were diluted in PBS and injected every other day for 21 days by intraperitoneal injection (20 μg/mouse). Tumor volume quantification was performed by using VivoQuant and Image J software. All mouse prostate MRI imaging analysis was performed at Small Animal Imaging Core at BIDMC and acquired on an ASPECT Model M2 1T tabletop scanner.

As for `O=C(Nc1ccc([N+](=O)[O-])cc1O)Nc1ccccc1Br` [SB225002], the tumor growth entry is on record as “did not show any significant response”. In addition, the tumor volume (CXCR2i (SB225002 5 mg/kg i.p. daily), row 0 = day 0 baseline, MRI) is 45.996 mm3 and 37.426 mm3. Also, the tumor volume (CXCR2i, row 1 (weekly MRI)) is 53.662 mm3 and 43.164 mm3. The tumor volume (CXCR2i, row 2 (weekly MRI, 2 weeks on treatment)) is 56.567 mm3 and 45.972 mm3. Under “listed as CXCR2i”, the tumor growth entry is recorded as “did not respond”.
